Laboratory results reported in PubChem BioAssay AID1963835 (Molecular Pharmacology Branch, DTP, NCI, 2024).

System: 699152-130-R-J1-PDC complex spheroid viability
Assay: Anticancer human tumor 699152-130-R-J1-PDC patient-derived pancreatic carcinoma cell line growth inhibition [POLQ]
Conditions: for IC50: curve of first compound; for viability, T/C: stronger effect = lower value
In short: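 PDC + HUVEC + MSC complex spheroids; POLQ inhibitors ± partner drugs; top conc. at/near clinical Cmax, else 10 microM (SN-38 1 microM), half-log dilutions; 37 degrees C, 5% CO2.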

[1] = second compound 0.0316 µM, first compound 0.0316 µM
[2] = second compound 0.0316 µM, first compound 0.1 µM
[3] = second compound 0.0316 µM, first compound 0.316 µM
[4] = second compound 0.0316 µM, first compound 1 µM
[5] = second compound 0.0316 µM, first compound 3.16 µM
[6] = second compound 0.0316 µM, first compound 10 µM
[7] = second compound 0.1 µM, first compound 0.0316 µM
[8] = second compound 0.1 µM, first compound 0.1 µM
[9] = second compound 0.1 µM, first compound 0.316 µM
[10] = second compound 0.1 µM, first compound 1 µM
[11] = second compound 0.1 µM, first compound 3.16 µM
[12] = second compound 0.1 µM, first compound 10 µM
[13] = second compound 0.316 µM, first compound 0.0316 µM
[14] = second compound 0.316 µM, first compound 0.1 µM
[15] = second compound 0.316 µM, first compound 0.316 µM
[16] = second compound 0.316 µM, first compound 1 µM
[17] = second compound 0.316 µM, first compound 3.16 µM
[18] = second compound 0.316 µM, first compound 10 µM
[19] = second compound 1 µM, first compound 0.0316 µM
[20] = second compound 1 µM, first compound 0.1 µM
[21] = second compound 1 µM, first compound 0.316 µM
[22] = second compound 1 µM, first compound 1 µM
[23] = second compound 1 µM, first compound 3.16 µM
[24] = second compound 1 µM, first compound 10 µM
[25] = second compound 3.16 µM, first compound 0.0316 µM
[26] = second compound 3.16 µM, first compound 0.1 µM
[27] = second compound 3.16 µM, first compound 0.316 µM
[28] = second compound 3.16 µM, first compound 1 µM
[29] = second compound 3.16 µM, first compound 3.16 µM
[30] = second compound 3.16 µM, first compound 10 µM
[31] = second compound 10 µM, first compound 0.0316 µM
[32] = second compound 10 µM, first compound 0.1 µM
[33] = second compound 10 µM, first compound 0.316 µM
[34] = second compound 10 µM, first compound 1 µM
[35] = second compound 10 µM, first compound 3.16 µM
[36] = second compound 10 µM, first compound 10 µM
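Further: spheroids exposed to agents for 7 days before viability reading.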
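Wherever viability, T/C is given: percent of DMSO vehicle control viability so 100% = vehicle and 0% = no viable signal.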

`C#Cc1c(F)ccc2cc(O)cc(-c3ncc4c(N5CC6CCC(C5)N6)nc(OCC56CCCN5CC(F)C6)nc4c3F)c12` (stereo not drawn) + COC1C(OC(N)=O)C(O)C(Oc2ccc3c(O)c(NC(=O)c4ccc(O)c(CC=C(C)C)c4)c(=O)oc3c2C)OC1(C)C was tested, and the IC50 (second compound 0.0316 µM) was < 0.0316 µM, the IC50 (second compound 0.1 µM) was < 0.0316 µM and the IC50 (second compound 0.316 µM) was < 0.0316 µM. The IC50 (second compound 1 µM) was < 0.0316 µM, the IC50 (second compound 3.16 µM) was < 0.0316 µM and the IC50 (second compound 10 µM) was < 0.0316 µM. The viability, T/C [1] was 24.1%, the viability, T/C [2] was 22.1% and the viability, T/C [3] was 15.1%. The viability, T/C [4] was 14.3%, the viability, T/C [5] was 13.6% and the viability, T/C [6] was 14.2%. For the same compound, the viability, T/C [7] was 25.4%, the viability, T/C [8] was 21.3% and the viability, T/C [9] was 17%. For the same compound, the viability, T/C [10] was 11.4%, the viability, T/C [11] was 12.7% and the viability, T/C [12] was 11.7%. For the same compound, the viability, T/C [13] was 26.2%, the viability, T/C [14] was 18.8% and the viability, T/C [15] was 16.5%. It also gave a viability, T/C [16] of 12.8%, a viability, T/C [17] of 13.2% and a viability, T/C [18] of 11.3%. For the same compound, the viability, T/C [19] was 26.8%, the viability, T/C [20] was 22.6% and the viability, T/C [21] was 17.7%. It also gave a viability, T/C [22] of 13.2%, a viability, T/C [23] of 11.9% and a viability, T/C [24] of 12.4%. For the same compound, the viability, T/C [25] was 26.3%, the viability, T/C [26] was 19.6% and the viability, T/C [27] was 18.8%. For the same compound, the viability, T/C [28] was 13.7%, the viability, T/C [29] was 12.4% and the viability, T/C [30] was 12.2%. For the same compound, the viability, T/C [31] was 23.9%, the viability, T/C [32] was 22.3% and the viability, T/C [33] was 17.2%. For the same compound, the viability, T/C [34] was 14.2%, the viability, T/C [35] was 13.8% and the viability, T/C [36] was 12.7%.
In the case of `C#Cc1c(F)ccc2cc(O)cc(-c3ncc4c(N5CC6CCC(C5)N6)nc(OCC56CCCN5CC(F)C6)nc4c3F)c12` (stereo not drawn) + Nc1ccc(C#CCN(C(=O)Cc2ncc(C(F)(F)F)cc2C(F)(F)F)c2ccc(F)cc2)nn1, the IC50 (second compound 0.0316 µM) is reported as < 0.0316 µM, the IC50 (second compound 0.1 µM) is reported as < 0.0316 µM and the IC50 (second compound 0.316 µM) is reported as < 0.0316 µM. The IC50 (second compound 1 µM) was < 0.0316 µM, the IC50 (second compound 3.16 µM) was < 0.0316 µM and the IC50 (second compound 10 µM) was < 0.0316 µM. The viability, T/C [1] was 26%, the viability, T/C [2] was 18.8% and the viability, T/C [3] was 14.6%. It also gave a viability, T/C [4] of 12.1%, a viability, T/C [5] of 14.2% and a viability, T/C [6] of 11.9%. The viability, T/C [7] was 25.1%, the viability, T/C [8] was 21.8% and the viability, T/C [9] was 15.4%. For the same compound, the viability, T/C [10] was 13.7%, the viability, T/C [11] was 13.3% and the viability, T/C [12] was 13.2%. The viability, T/C [13] was 24%, the viability, T/C [14] was 16.3% and the viability, T/C [15] was 18.9%. It also gave a viability, T/C [16] of 12.3%, a viability, T/C [17] of 12.4% and a viability, T/C [18] of 12.1%. The viability, T/C [19] was 18.8%, the viability, T/C [20] was 18.8% and the viability, T/C [21] was 13.5%. It also gave a viability, T/C [22] of 12.8%, a viability, T/C [23] of 12.8% and a viability, T/C [24] of 12.4%. The viability, T/C [25] was 21.6%, the viability, T/C [26] was 16.9% and the viability, T/C [27] was 13%. The viability, T/C [28] was 13.3%, the viability, T/C [29] was 11.8% and the viability, T/C [30] was 14.2%. It also gave a viability, T/C [31] of 32.2%, a viability, T/C [32] of 18.8% and a viability, T/C [33] of 14.3%. It also gave a viability, T/C [34] of 14.6%, a viability, T/C [35] of 13.5% and a viability, T/C [36] of 11.5%.
For `CCCS(=O)(=O)Nc1ccc(F)c(C(=O)c2c[nH]c3ncc(-c4ccc(Cl)cc4)cc23)c1F` + COC1C(OC(N)=O)C(O)C(Oc2ccc3c(O)c(NC(=O)c4ccc(O)c(CC=C(C)C)c4)c(=O)oc3c2C)OC1(C)C, the IC50 (second compound 0.0316 µM) was > 10 µM, the IC50 (second compound 0.1 µM) was > 10 µM and the IC50 (second compound 0.316 µM) was > 10 µM. The IC50 (second compound 1 µM) was > 10 µM, the IC50 (second compound 3.16 µM) was > 10 µM and the IC50 (second compound 10 µM) was > 10 µM. For the same compound, the viability, T/C [1] was 117%, the viability, T/C [2] was 105% and the viability, T/C [3] was 125%. For the same compound, the viability, T/C [4] was 151%, the viability, T/C [5] was 172% and the viability, T/C [6] was 64.7%. It also gave a viability, T/C [7] of 115%, a viability, T/C [8] of 109% and a viability, T/C [9] of 126%. The viability, T/C [10] was 159%, the viability, T/C [11] was 191% and the viability, T/C [12] was 64.1%. It also gave a viability, T/C [13] of 108%, a viability, T/C [14] of 112% and a viability, T/C [15] of 134%. The viability, T/C [16] was 149%, the viability, T/C [17] was 177% and the viability, T/C [18] was 59.9%. It also gave a viability, T/C [19] of 105%, a viability, T/C [20] of 115% and a viability, T/C [21] of 126%. For the same compound, the viability, T/C [22] was 147%, the viability, T/C [23] was 171% and the viability, T/C [24] was 64.1%. It also gave a viability, T/C [25] of 105%, a viability, T/C [26] of 121% and a viability, T/C [27] of 124%. The viability, T/C [28] was 145%, the viability, T/C [29] was 281% and the viability, T/C [30] was 68.3%. It also gave a viability, T/C [31] of 107%, a viability, T/C [32] of 114% and a viability, T/C [33] of 123%. For the same compound, the viability, T/C [34] was 148%, the viability, T/C [35] was 175% and the viability, T/C [36] was 66.4%.
For `O=C(c1cc(Cc2n[nH]c(=O)c3ccccc23)ccc1F)N1CCN(C(=O)C2CC2)CC1` + Cc1cccc(N(C)C(=O)C2C(O)CCN2c2nc(C)cc(C(F)(F)F)c2C#N)c1, the IC50 (second compound 0.0316 µM) was > 10 µM, the IC50 (second compound 0.1 µM) was > 10 µM and the IC50 (second compound 0.316 µM) was > 10 µM. The IC50 (second compound 1 µM) was > 10 µM, the IC50 (second compound 3.16 µM) was > 10 µM and the IC50 (second compound 10 µM) was > 10 µM. The viability, T/C [1] was 91.2%, the viability, T/C [2] was 96.4% and the viability, T/C [3] was 82.7%. The viability, T/C [4] was 96.1%, the viability, T/C [5] was 104% and the viability, T/C [6] was 69.6%. For the same compound, the viability, T/C [7] was 94%, the viability, T/C [8] was 104% and the viability, T/C [9] was 93.1%. It also gave a viability, T/C [10] of 94.8%, a viability, T/C [11] of 99.5% and a viability, T/C [12] of 75.5%. The viability, T/C [13] was 88.3%, the viability, T/C [14] was 97.1% and the viability, T/C [15] was 97.3%. For the same compound, the viability, T/C [16] was 111%, the viability, T/C [17] was 107% and the viability, T/C [18] was 81%. The viability, T/C [19] was 103%, the viability, T/C [20] was 94.8% and the viability, T/C [21] was 92.4%. The viability, T/C [22] was 102%, the viability, T/C [23] was 87.3% and the viability, T/C [24] was 75.7%. It also gave a viability, T/C [25] of 101%, a viability, T/C [26] of 104% and a viability, T/C [27] of 91.1%. It also gave a viability, T/C [28] of 97.1%, a viability, T/C [29] of 92.6% and a viability, T/C [30] of 72%. For the same compound, the viability, T/C [31] was 94.6%, the viability, T/C [32] was 90.6% and the viability, T/C [33] was 105%. For the same compound, the viability, T/C [34] was 84.9%, the viability, T/C [35] was 99.1% and the viability, T/C [36] was 78.9%.
